According to paper PMC9114799, “In vitro Evaluation of Isoniazid Derivatives as Potential Agents Against Drug-Resistant Tuberculosis” (Frontiers in Pharmacology, 2022):
Converted amounts (≈) assume the structure as drawn. Read-outs that look alike come from different tables or passages of the source. Marks after values point to notes of the source that are not given here.

Columns and labels:
[1] = tested on: M. tuberculosis clinical strain katG (S315T); conditions: ref Martins et al., cited from earlier work
[2] = tested on: M. tuberculosis clinical strain katG (S315T); type: cell-based, Mycobacterium tuberculosis

| Structure (SMILES) | MIC (katG S315T) ([1]; katG (S315T) Mtb, 2014) | activity in the mutated strain [2] | increase of MIC going from wt to S315T [2] | MIC (katG S315T) ([1]; Table S1, 2014 (per Table 2)) | gain in efficacy against katG (S315T) strain compared with INH [2] |
| --- | --- | --- | --- | --- | --- |
| COC(=O)c1ccc(/C=N/NC(=O)c2ccncc2)cc1 [Compound N33, methyl (E)-4-((2-isonicotinoylhydrazineylidene)methyl)benzoate] | 21.2 ^a µM | still active | ~20 fold |  |  |
| COC(=O)c1ccc(CNNC(=O)c2ccncc2)cc1 [Compound N33red, methyl 4-((2-isonicotinoylhydrazinyl)methyl)benzoate] |  | completely abolished |  |  |  |
| O=C(N/N=C/c1ccc(Oc2ccccc2)cc1)c1ccncc1 [Compound N34, (E)-N'-(4-phenoxybenzylidene)isonicotinohydrazide] | 18.9 ^a µM | still active | ~20 fold |  |  |
| O=C(NNCc1ccc(Oc2ccccc2)cc1)c1ccncc1 [Compound N34red, N'-(4-phenoxybenzyl)isonicotinohydrazide] |  | completely abolished |  |  |  |
| NNC(=O)c1ccncc1 [INH, isonicotinoylhydrazide, reference compound] | 43.8 ^a µM |  | approximately 150 fold |  |  |
| CCCCCCCCCC(=O)NNC(=O)c1ccncc1 [INH-C10, N′-decanoylisonicotinoylhydrazide] | 6.9 ^a µM |  | ~20 fold | 2.0 g/mL (≈ 6860 mM) | 6 fold |
